# Source: patent US11771685B2, “Compounds for the treatment of neurological or mitochondrial diseases” (MUSC FOUNDATION FOR RESEARCH DEVELOPMENT, priority 2018, dated 2023)
# Tests used:
# [1] = In vivo pharmacokinetics in CD-1 mice; conditions: male, CD-1, mouse, plasma, ip, 20 mg/kg, intraperitoneal 20 mg/kg, 5% DMSO: 95% neobee
# [2] = test system: 6 Hz electrically-induced seizures in mice; test: 6 Hz mouse seizure model; assay type: in vivo; conditions: for 6 Hz 32 mA N/T, mice protected / 6 Hz 44 mA N/T, mice protected: 1 hr; for Number of Animals Protected / Effective Dose / Time of Peak Effect: 5% DMSO: 95% Neobee; for protection against seizures, preliminary testing: toxicity by Rotarod assay and behavioral observations
# Description: In particular, using (i) electrical model to test for seizures in mice and, separately, (ii) in rat 6 Hz 40V model. More specifically, NT-102 was injected (i.p.) in 5% DMSO/95% Miglyol 840 as vehicle. […] […] The mice were administered the NT-102 at various doses and placed on the rotarod (i.e., “Rotarod (Tox)”) to test if the mice would fall off as a model of due to the effects of NT-102; for the “Rotarod(Tox)” results, the “NIT” indicates the number of mice that fell off the rotarod (e.g., for Rotarod(Tox) results, if N/T is 0/8, then zero out of eight mice fell off). […] […] The 44 mA electrical dosage was used since it is considered to be a model to test for medication-resistant epilepsy.
# [3] = Mini-Ames test (mutagenicity); assay type: cell-based; conditions: in vitro
# rat brain slices = test: Rat in vitro spontaneous electrographic bursting model
# Description: (§1) Synthesis for both compounds has been successfully scaled up. The pharmacokinetic (PK) parameters of these two Vitamin K analogs were determined via intravenous, intraperitoneal and oral administration in mice, and preliminary in vitro ADMET parameters were assessed (Table 3). These compounds are Ames-negative, have hepatic stability greater than 1 hour, can be formulated in oral solution and IV injection solution, can be synthesized in greater than 1 mg quantities, and have established brain PK. However, brain tissue binding was high for both compounds (97-98%). Both 3 (NT-181) and 17 (NT-102) have been tested for efficacy in the 6 Hz mouse seizure model at 22 mA and 32 mA, the corneal kindled mouse model, and the rat in vitro spontaneous electrographic bursting model of pharmacoresistance (Table 4). […] Preliminary studies with this new formulation reveal excellent solubility with full protection in the 6 Hz mouse seizure model at 22 mA, and quantification of both compounds (using this new formulation) in this model at 22 mA, 32 mA and 44 mA, is being performed as well as retesting in the corneal kindled model. […] Rat PK assessments will be performed, and seizure protection assessed in rat models in the ADD workflow such as the 6 Hz model and lamotrigine-resistant amygdala kindled mode.
# [4] = Aqueous solubility at pH 7.4; assay type: physicochemical; conditions: pH 7.4, aqueous buffer; 50 mM phosphate buffer
# [5] = test system: 6 Hz 40 V electrically-induced seizures in rats; test: Rat 6 Hz 40 V seizure model; assay type: in vivo
# Description: In particular, using (i) electrical model to test for seizures in mice and, separately, (ii) in rat 6 Hz 40V model. More specifically, NT-102 was injected (i.p.) in 5% DMSO/95% Miglyol 840 as vehicle. Mice were challenged with 6 Hz 44 mA current to see if seizures would result. […] The Time of Peak Effect (TPE) was observed 1 hour. Additional data is shown below in Table 5. The mice were administered the NT-102 at various doses and placed on the rotarod (i.e., “Rotarod (Tox)”) to test if the mice would fall off as a model of due to the effects of NT-102; for the “Rotarod(Tox)” results, the “NIT” indicates the number of mice that fell off the rotarod (e.g., for Rotarod(Tox) results, if N/T is 0/8, then zero out of eight mice fell off). For the electrical stimulation data (i.e., “6 Hz 44 mA”), an electrical stimulation of 6 Hz 44 mA was administered. […] The 44 mA electrical dosage was used since it is considered to be a model to test for medication-resistant epilepsy.
# The 6 Hz 40 V electrical stimulation amount was used because this electrical dosage is considered to be a rat model for medication-resistant epilepsy.
# [6] = Rotarod neurotoxicity test in mice; assay type: in vivo, mouse; conditions: 1 hr, 44 mA study
# Description: Mice or rats were administered the NT-102 compound i.p., one hour was allowed to pass (since the time to peak effect was determined to be about one hour), and then rodents were then placed on the Rotarod to determine if any motor defects would be observed; after the rotarod test, then rodents were administered an electrical stimulation to determine if the dose of NT-102 would protect against (i.e., prevent) the seizures due to the electrical stimulation. In particular, using (i) electrical model to test for seizures in mice and, separately, (ii) in rat 6 Hz 40V model. More specifically, NT-102 was injected (i.p.) in 5% DMSO/95% Miglyol 840 as vehicle. Mice were challenged with 6 Hz 44 mA current to see if seizures would result. […] The Time of Peak Effect (TPE) was observed 1 hour. Additional data is shown below in Table 5. The mice were administered the NT-102 at various doses and placed on the rotarod (i.e., “Rotarod (Tox)”) to test if the mice would fall off as a model of due to the effects of NT-102; for the “Rotarod(Tox)” results, the “NIT” indicates the number of mice that fell off the rotarod (e.g., for Rotarod(Tox) results, if N/T is 0/8, then zero out of eight mice fell off). For the electrical stimulation data (i.e., “6 Hz 44 mA”), an electrical stimulation of 6 Hz 44 mA was administered. […] The 44 mA electrical dosage was used since it is considered to be a model to test for medication-resistant epilepsy.
# corneal kindled mouse = test: Mouse corneal kindled model; assay type: in vivo; conditions: 5% DMSO: 95% Neobee
# Description: as §1
smiles,measurement,setting,value
"CC(C)CCNC1=CC(=O)c2ccccc2C1=O [Compound 17, 2-(Isopentylamino)naphthalene-1,4-dione]",AUC(0-inf),[1],1730 ng·h/mL
same,Cmax,[1],320 ng/mL
same,MRT inf,[1],4.39 h
same,Tmax,[1],1 h
same,"6 Hz 32 mA N/T, mice protected",[2]; 50 mg/kg,0/8
same,"6 Hz 44 mA N/T, mice protected",[2]; 100 mg/kg i.p.,0/8
same,"6 Hz 32 mA N/T, mice protected",[2]; 100 mg/kg,4/8
same,"6 Hz 44 mA N/T, mice protected",[2]; 200 mg/kg i.p.,2/8
same,"6 Hz 32 mA N/T, mice protected",[2]; 200 mg/kg,3/8
same,"6 Hz 44 mA N/T, mice protected",[2]; 300 mg/kg i.p.,4/8
same,"6 Hz 32 mA N/T, mice protected",[2]; 300 mg/kg,7/8
same,"6 Hz 44 mA N/T, mice protected",[2]; 400 mg/kg i.p.,8/8
same,Time of Peak Effect (TPE),"[2]; 6 Hz 44 mA, i.p., 5% DMSO/95% Miglyol 840",1 h
same,Number of Animals Protected,"[2]; 22 mA, 400 mg/kg",8/8 at 400 mg/kg
same,Effective Dose,[2]; 22 mA,209.05 (25-400) mg/kg
same,Time of Peak Effect,[2]; 22 mA,0.25 h
same,Number of Animals Protected,"[2]; 32 mA, 400 mg/kg",2/8 at 400 mg/kg
same,ED50,"[2]; Mus musculus, 6 Hz 32 mA",153 mg/kg
same,"protection against seizures, preliminary testing",[2],displayed protection against seizures with few or no toxic events
same,Mini-Ames test (mutagenicity),[3],Ames-negative
same,Mini-Ames test (mutagenicity),[3]; listed as NT-102,Negative
same,Number protected,rat brain slices; 10 uM,0/9 at 10 uM
same,solubility,[4],9.64 µg/mL
same,"6 Hz 40 V N/T, rats protected","[5]; 200 mg/kg, 1 hr",1/8
same,"6 Hz 40 V N/T, rats protected","[5]; 250 mg/kg, 1 hr",2/8
same,"6 Hz 40 V N/T, rats protected","[5]; 300 mg/kg i.p., 0.25 hr",3/8
same,"6 Hz 40 V N/T, rats protected","[5]; 300 mg/kg i.p., 0.5 hr",0/8
same,"6 Hz 40 V N/T, rats protected","[5]; 300 mg/kg i.p., 1 hr",5/8
same,"6 Hz 40 V N/T, rats protected","[5]; 300 mg/kg i.p., 2 hr",0/4
same,"6 Hz 40 V N/T, rats protected","[5]; 300 mg/kg i.p., 4 hr",0/4
same,"6 Hz 40 V N/T, rats protected","[5]; 350 mg/kg, 1 hr",6/8
same,ED50,"[5]; Rattus norvegicus, 6 Hz 40 V",293 mg/kg
same,Time to peak result,"[5]; i.p., 6 Hz 40 V",about one
same,"Rotarod (Tox) N/T, mice that fell off",[6]; 100 mg/kg i.p.,0/8
same,"Rotarod (Tox) N/T, mice that fell off",[6]; 200 mg/kg i.p.,2/8
same,"Rotarod (Tox) N/T, mice that fell off",[6]; 300 mg/kg i.p.,0/8
same,"Rotarod (Tox) N/T, mice that fell off",[6]; 400 mg/kg i.p.,1/8
same,Number of Animals Protected,"corneal kindled mouse; 100, 300 and 400 mg/kg","0/24 at 100, 300 and 400 mg/kg"
"CCC#CCNC1=CC(=O)c2ccccc2C1=O [Compound 3, 2-(Pent-2-yn-1-ylamino)naphthalene-1,4-dione]",AUC(0-inf),[1],478 ng·h/mL
same,Cmax,[1],147 ng/mL
same,MRT inf,[1],4.2 h
same,Tmax,[1],1 h
same,Number of Animals Protected,"[2]; 22 mA, 100 mg/kg",8/8 at 100 mg/kg
same,Effective Dose,[2]; 22 mA,80.60 (25-100) mg/kg
same,Time of Peak Effect,[2]; 22 mA,0.5 h
same,Number of Animals Protected,"[2]; 32 mA, 100 mg/kg",0/7
same,Number of Animals Protected,"[2]; 32 mA, 300 mg/kg",3/8
same,Number of Animals Protected,"[2]; 44 mA, 100 mg/kg",0/8 at 100 mg/kg
same,"protection against seizures, preliminary testing",[2],displayed protection against seizures with few or no toxic events
same,Mini-Ames test (mutagenicity),[3],Ames-negative
same,Mini-Ames test (mutagenicity),[3]; listed as NT-181,Negative
same,Number protected,rat brain slices; 5 uM,0/8 at 5 uM
same,solubility,[4],4.79 µg/mL
same,Number of Animals Protected,corneal kindled mouse; 300 mg/kg,0/8 at 300 mg/kg
